Test results reported in US20240327382A1 (ALMAC DISCOVERY LIMITED, priority 2021, published 2024).

Target: T1, Full-length USP19 (Homo sapiens, UniProt O94966)
T1 construct: Full-length USP19 was purchased from Boston Biochem (E-576); purchased Boston Biochem E-576
T1 sequence (O94966 1-1318): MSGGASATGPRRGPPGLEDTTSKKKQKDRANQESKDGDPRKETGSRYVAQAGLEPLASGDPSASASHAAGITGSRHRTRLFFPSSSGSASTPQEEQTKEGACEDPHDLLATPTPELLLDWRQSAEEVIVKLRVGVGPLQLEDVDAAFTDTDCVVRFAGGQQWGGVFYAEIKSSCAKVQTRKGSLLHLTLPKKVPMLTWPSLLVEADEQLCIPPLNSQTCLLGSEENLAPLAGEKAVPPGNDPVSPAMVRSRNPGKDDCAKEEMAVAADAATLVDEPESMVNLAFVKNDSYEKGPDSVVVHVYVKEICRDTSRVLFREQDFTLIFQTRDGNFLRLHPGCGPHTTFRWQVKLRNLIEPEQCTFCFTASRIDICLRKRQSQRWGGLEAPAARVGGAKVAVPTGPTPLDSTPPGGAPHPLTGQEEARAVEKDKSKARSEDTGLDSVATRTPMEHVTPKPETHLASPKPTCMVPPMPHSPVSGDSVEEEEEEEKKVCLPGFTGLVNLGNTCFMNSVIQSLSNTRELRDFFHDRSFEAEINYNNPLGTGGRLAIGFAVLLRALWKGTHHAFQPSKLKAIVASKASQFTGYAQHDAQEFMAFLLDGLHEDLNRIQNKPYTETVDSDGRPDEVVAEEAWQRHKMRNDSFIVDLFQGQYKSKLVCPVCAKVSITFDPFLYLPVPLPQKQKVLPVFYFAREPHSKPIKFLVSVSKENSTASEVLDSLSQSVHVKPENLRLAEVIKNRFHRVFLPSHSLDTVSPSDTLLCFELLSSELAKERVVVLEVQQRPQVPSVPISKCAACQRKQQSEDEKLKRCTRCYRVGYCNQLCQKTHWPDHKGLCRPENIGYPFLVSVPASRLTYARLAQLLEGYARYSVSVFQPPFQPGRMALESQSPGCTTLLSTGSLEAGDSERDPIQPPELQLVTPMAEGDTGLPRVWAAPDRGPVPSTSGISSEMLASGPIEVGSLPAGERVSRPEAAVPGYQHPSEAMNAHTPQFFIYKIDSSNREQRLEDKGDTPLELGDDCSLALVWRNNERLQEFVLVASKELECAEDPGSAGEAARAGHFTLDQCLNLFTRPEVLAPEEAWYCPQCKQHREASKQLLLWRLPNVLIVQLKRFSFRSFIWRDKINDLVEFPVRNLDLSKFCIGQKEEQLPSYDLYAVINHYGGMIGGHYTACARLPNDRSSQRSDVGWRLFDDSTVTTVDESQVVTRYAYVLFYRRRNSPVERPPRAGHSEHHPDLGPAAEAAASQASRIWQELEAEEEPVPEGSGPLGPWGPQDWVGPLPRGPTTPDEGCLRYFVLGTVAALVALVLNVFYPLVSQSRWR
Assay: USP19 fluorescence polarisation (FP) assay, Ubiquitin-Lys-TAMRA substrate
Format: biochemical
Conditions: average of at least two duplicate experiments
Summary of the method: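 Full-length human USP19 (added at 2.5 nM) was preincubated 30 min at RT with inhibitor (serial dilutions 200 μM to 2 μM) in 50 mM HEPES pH 7.4, 150 mM NaCl, 5 mM DTT, 0.05% BSA, 0.05% CHAPS. Ubiquitin-Lys-TAMRA isopeptide substrate (added at 500 nM) started the reaction, and FP (Ex 530/Em 575 nm) was read every 15 min over 90 min. IC50 came from non-linear regression of signal normalised to no-compound control, averaged over at least two duplicate experiments.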

| SMILES | IC50 |
| --- | --- |
| O=C1OCCN1[C@@H]1CCN(C(=O)N2CC[C@@H](Cn3cnc(-c4ccccc4)cc3=O)C3(CCCC3)C2)[C@H](c2cccc(F)c2)C1 [Example 197, 3-((2S,4R)-2-(3-Fluorophenyl)-1-((R)-10-((6-oxo-4-phenylpyrimidin-1(6H)-yl)methyl)-7-azaspiro[4.5]decane-7-carbonyl)piperidin-4-yl)oxazolidin-2-one] | 10 to 100 nM |
| O=C(N1CC[C@@H](Cn2cnc(-c3ccccc3)cc2=O)C2(CCCC2)C1)N1CC[C@@H](NCCF)C[C@H]1c1cccc(F)c1 [Example 196, 3-(((R)-7-((2S,4R)-4-((2-Fluoroethyl)amino)-2-(3-fluorophenyl)piperidine-1-carbonyl)-7-azaspiro[4.5]decan-10-yl)methyl)-6-phenylpyrimidin-4(3H)-one] | < 10 nM |
| CC1(C)CN(C(=O)N2CC[C@@H](N)C[C@H]2c2ccccc2)CCC1Cn1cnc(-c2ccccc2)cc1=O (stereo partly drawn) [Example 19, 3-((1-((2S,4R)-4-Amino-2-phenylpiperidine-1-carbonyl)-3,3-dimethylpiperidin-4-yl)methyl)-6-phenylpyrimidin-4(3H)-one] | < 10 nM |
| CN[C@@H]1CCN(C(=O)N2CCC(Cn3ccc(-c4ccccc4)cc3=O)CC2)[C@H](c2ccccc2)C1 [Example 47, 1-((1-((2S,4R)-4-(Methylamino)-2-phenylpiperidine-1-carbonyl)piperidin-4-yl)methyl)-4-phenylpyridin-2(1H)-one] | < 10 nM |
| CN[C@@H]1CCN(C(=O)N2CC[C@@H](Cn3cnc(-c4ccccc4C)cc3=O)C3(CCCC3)C2)[C@H](c2cccc(F)c2)C1 [Example 119, 3-(((R)-7-((2S,4R)-2-(3-Fluorophenyl)-4-(methylamino)piperidine-1-carbonyl)-7-azaspiro[4.5]decan-10-yl)methyl)-6-(0-tolyl)pyrimidin-4(3H)-one] | < 10 nM |
| CN[C@@H]1CCN(C(=O)N2CC[C@@H](Cn3ccc(Cl)cc3=O)C3(CCCC3)C2)[C@H](c2cc(F)ccc2F)C1 [Example 123, 4-Chloro-1-(((R)-7-((2S,4R)-2-(2,5-difluorophenyl)-4-(methylamino)piperidine-1-carbonyl)-7-azaspiro[4.5]decan-10-yl)methyl)pyridin-2(1H)-one] | < 10 nM |
| N[C@@H]1CCN(C(=O)N2CC[C@@H](Cn3cnc(-c4ccccc4)cc3=O)C3(CCCC3)C2)[C@H](c2cc(F)ccc2F)C1 [Example 86, 3-(((R)-7-((2S,4R)-4-amino-2-(2,5-difluorophenyl)piperidine-1-carbonyl)-7-azaspiro[4.5]decan-10-yl)methyl)-6-phenylpyrimidin-4(3H)-one] | < 10 nM |
| N[C@@H]1CCN(C(=O)N2CC[C@@H](Cn3cnc4ccc(F)cc4c3=O)C3(CCCC3)C2)[C@H](c2ccccc2)C1 [Example 100, 3-(((R)-7-((2S,4R)-4-Amino-2-phenylpiperidine-1-carbonyl)-7-azaspiro[4.5]decan-10-yl)methyl)-6-fluoroquinazolin-4(3H)-one] | < 10 nM |
| O=C(N1CC[C@@H](Cn2ccc(-c3ccccc3)cc2=O)C2(CCCC2)C1)N1CC[C@H](NC2CS(=O)(=O)C2)C[C@H]1c1ccccc1 [Example 51, 1-(((R)-7-((2S,4S)-4-((1,1-Dioxidothietan-3-yl)amino)-2-phenylpiperidine-1-carbonyl)-7-azaspiro[4.5]decan-10-yl)methyl)-4-phenylpyridin-2(1H)-one] | 100 to 1000 nM |
| CN[C@@H]1CCN(C(=O)N2CC[C@](Cn3ccc(-c4ccccc4)cc3=O)(OC)C3(CCCC3)C2)[C@H](c2ccccc2)C1 [Example 58, 1-(((S)-10-Methoxy-7-((2S,4R)-4-(methylamino)-2-phenylpiperidine-1-carbonyl)-7-azaspiro[4.5]decan-10-yl)methyl)-4-phenylpyridin-2(1H)-one] | < 10 nM |
| CN[C@@H]1CCN(C(=O)N2CC[C@@H](Cn3cnc(-c4ccccc4F)cc3=O)C3(CCCC3)C2)[C@H](c2cc(F)cc(F)c2)C1 [Example 143, 3-(((R)-7-((2S,4R)-2-(3,5-Difluorophenyl)-4-(methylamino)piperidine-1-carbonyl)-7-azaspiro[4.5]decan-10-yl)methyl)-6-(2-fluorophenyl)pyrimidin-4(3H)-one] | < 10 nM |
| CN[C@@H]1CCN(C(=O)N2CC[C@@H](Cn3cnc(C(F)F)cc3=O)C3(CCCC3)C2)[C@H](c2ccc(F)cc2F)C1 [Example 130, 6-(Difluoromethyl)-3-(((R)-7-((2S,4R)-2-(2,4-difluorophenyl)-4-(methylamino)piperidine-1-carbonyl)-7-azaspiro[4.5]decan-10-yl)methyl)pyrimidin-4(3H)-one] | < 10 nM |
| COc1ccccc1-c1ccn(C[C@@H]2CCN(C(=O)N3CC[C@@H](N)C[C@H]3c3ccccc3)CC23CCCC3)c(=O)c1 [Example 59, 1-(((R)-7-((2S,4R)-4-Amino-2-phenylpiperidine-1-carbonyl)-7-azaspiro[4.5]decan-10-yl)methyl)-4-(2-methoxyphenyl)pyridin-2(1H)-one] | < 10 nM |
| O=C(N1CCC(Cn2cnc(-c3ccccc3)cc2=O)CC1)N1CCNC[C@H]1c1ccccc1 [Example 1, (R)-6-Phenyl-3-((1-(2-phenylpiperazine-1-carbonyl)piperidin-4-yl)methyl)pyrimidin-4(3H)-one] | 100 to 1000 nM |
| O=C(NCc1ccccc1)N1CCC(Cn2cnc(-c3ccccc3)cc2=O)C2(CCCC2)C1 (stereo not shown) [Example 10, N-Benzyl-10-((6-oxo-4-phenylpyrimidin-1(6H)-yl)methyl)-7-azaspiro[4.5]decane-7-carboxamide] | 100 to 1000 nM |
| O=C(N1CCC(Cn2cnc(-c3ccccc3)cc2=O)C2(CCCC2)C1)N1CCC[C@H]1c1ccccc1 (stereo partly drawn) [Example 8, 6-Phenyl-3-((7-((S)-2-phenylpyrrolidine-1-carbonyl)-7-azaspiro[4.5]decan-10-yl)methyl)pyrimidin-4(3H)-one] | 100 to 1000 nM |
| CN[C@@H]1CCN(C(=O)N2CC[C@@H](Cn3ccc(-c4ccccc4F)cc3=O)C3(CCCC3)C2)[C@H](c2ccccc2)C1 [Example 55, 4-(2-Fluorophenyl)-1-(((R)-7-((2S,4R)-4-(methylamino)-2-phenylpiperidine-1-carbonyl)-7-azaspiro[4.5]decan-10-yl)methyl)pyridin-2(1H)-one] | < 10 nM |
| COc1ccccc1-c1ccn(C[C@@H]2CCN(C(=O)N3CC[C@@H](N)C[C@H]3c3cc(F)ccc3F)CC23CCCC3)c(=O)c1 [Example 89, 1-(((R)-7-((2S,4R)-4-Amino-2-(2,5-difluorophenyl)piperidine-1-carbonyl)-7-azaspiro[4.5]decan-10-yl)methyl)-4-(2-methoxyphenyl)pyridin-2(1H)-one] | < 10 nM |
| O=C(N1CCC(Cn2cnc(-c3ccccc3)cc2=O)C2(CCCC2)C1)N1CCNC[C@H]1c1cc(F)cc(F)c1 (stereo partly drawn) [Example 11, 3-((7-((R)-2-(3,5-Difluorophenyl)piperazine-1-carbonyl)-7-azaspiro[4.5]decan-10-yl)methyl)-6-phenylpyrimidin-4(3H)-one] | < 10 nM |
| O=C(N1CC[C@H](Cn2ccc(-c3ccccc3)cc2=O)C2(CCCC2)C1)N1CCNC[C@H]1c1ccccc1 (single isomer, unassigned) [Example 15] | 1000 to 20000 nM |
| O=C(N1CC[C@@H](Cn2ccc(Cl)cc2=O)C2(CCCC2)C1)N1CC[C@@H](NC2CC(F)(F)C2)C[C@H]1c1cc(F)ccc1F [Example 186, 4-Chloro-1-(((R)-7-((2S,4R)-4-((3,3-difluorocyclobutyl)amino)-2-(2,5-difluorophenyl)piperidine-1-carbonyl)-7-azaspiro[4.5]decan-10-yl)methyl)pyridin-2(1H)-one] | 10 to 100 nM |
| CN[C@@H]1CCN(C(=O)N2CC[C@@H](Cn3cnc(-c4ccccc4OC)cc3=O)C3(CCCC3)C2)[C@H](c2cc(F)ccc2F)C1 [Example 99, 3-(((R)-7-((2S,4R)-2-(2,5-Difluorophenyl)-4-(methylamino)piperidine-1-carbonyl)-7-azaspiro[4.5]decan-10-yl)methyl)-6-(2-methoxyphenyl)pyrimidin-4(3H)-one] | < 10 nM |
